{"source": "ChEMBL document CHEMBL3886423", "about": "“Nitrogen-containing compounds and pharmaceutical compositions thereof for the treatment of atrial fibrillation” (2015)", "target": "Potassium voltage-gated channel subfamily A member 5 (Homo sapiens, UniProt P22460)", "sequence (P22460 whole entry)": "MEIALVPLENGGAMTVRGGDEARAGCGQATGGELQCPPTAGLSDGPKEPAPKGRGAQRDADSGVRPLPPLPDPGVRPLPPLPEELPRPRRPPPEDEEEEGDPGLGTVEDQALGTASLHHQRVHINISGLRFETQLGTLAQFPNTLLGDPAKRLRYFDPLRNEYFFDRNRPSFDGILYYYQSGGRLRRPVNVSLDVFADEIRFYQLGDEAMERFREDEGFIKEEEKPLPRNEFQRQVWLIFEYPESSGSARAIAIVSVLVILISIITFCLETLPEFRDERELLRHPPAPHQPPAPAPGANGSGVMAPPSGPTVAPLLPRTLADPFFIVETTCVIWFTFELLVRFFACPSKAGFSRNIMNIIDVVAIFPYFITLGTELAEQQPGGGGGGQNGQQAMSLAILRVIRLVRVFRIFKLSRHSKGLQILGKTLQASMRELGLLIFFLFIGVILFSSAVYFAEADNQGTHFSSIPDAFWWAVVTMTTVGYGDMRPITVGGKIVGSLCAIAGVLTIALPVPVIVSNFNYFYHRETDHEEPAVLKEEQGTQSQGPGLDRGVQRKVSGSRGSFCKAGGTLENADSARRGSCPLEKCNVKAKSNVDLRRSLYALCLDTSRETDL", "test": "Inhibition Assay: CHO-K1 cell lines stably expressing human Kv1.5 channels were prepared in the following manner.Full-length human Kv1.5 cDNA was cloned from a human heart cDNA library (produced by Stratagene). The obtained human Kv1.5 sequence corresponds to the sequence described in FASEB J. 5, 331-337 (1991).The obtained human Kv1.5 cDNA was inserted into a plasmid encoding a CMV promoter and a G418 resistance marker to produce a Kv1.5 expression vector. The human Kv1.5 expression vector was transfected into CHO-K1 cells by the lipofectamine method. After culturing the cells in an F-12 medium (produced by Invitrogen Corp.) containing 10% FBS (produced by Invitrogen Corp.) for 3 or 4 days, the medium was replaced with a FBS-containing F-12 medium that included 1,000 ug/ml of G418 (produced by Invitrogen Corp.), and single colonies were isolated. The amount of Kv1.5 channel expression in the single colonies was quantified at the mRNA level by RT-PCR and then quantified at the protein level.", "type": "cell-based"}
{"smiles": "Cn1c(=O)ccc2cc(OCCCCCN(CCc3cccnc3)C(=O)c3cccnc3)ccc21", "values": [{"measurement": "IC50", "value": 1.4, "unit": "µM"}]}
